Laboratory results: patent US6667053B1, “D and L etherlipid stereoisomers and liposomes” (Elan Pharmaceuticals, Inc., priority 1996, dated 2003)
Like-named read-outs stand apart in the source and are kept apart here. Blank lines part the entries; values can stand above or below the compound they belong to.

What was measured:
Format in all cases: cell-based
[1] = system: A549, a human non-small cell lung carcinoma cell line; assay: In vitro growth inhibition, Sulforhodamine B (SRB) assay, A549; conditions: read-out: In vitro growth inhibition GI50 (± sd), A549
Description: (§1) The anti-tumor activities of the D and L etherlipid were evaluated against A549, a human non-small cell lung carcinoma cell line; MCF 7, a human breast carcinoma line and MCF 7/adr, multi-drug resistant human breast carcinoma; were obtained from the DCT Tumor Repository (NCI-Frederick Cancer Research Facility, Frederick, Md.). U-937, a human histiocytic lymphoma cell line, was obtained from the American Type Culture Collection. Stock cultures of these human cell lines were maintained in RPMI 1640 tissue culture media (Life Technologies, Gaithersburg, Md.) supplemented with 10% heat inactivated fetal bovine serum (Life Technologies) and 10 mM HEPES (Life Technologies). Cultures were maintained in exponential growth in a humidified incubator with 5% CO2 and were passaged twice weekly. L1210 and L1210/vmdr, murine lymphocytic leukemias, (Yale University School of Medicine). L1210/vmdr, a selected line of L1210, was transfected with a plasmid (pHaMDR1/A) containing the mdr 1 gene.
(§2) The detailed methodology of the SRB assay is described elsewhere (2,3). […] The bound stain was solubilized with 100 ul of 10 mM Tris buffer (Sigma) and the optical density was read spectrophotometrically at 490 nm (Microplate Reader Model 3550-UV, Biorad, Hercules, Calif.). […] Percent growth was calculated as follows: (T−T0)/(C−T0)×100 where (T)=mean optical density of treated wells at a given drug concentration, (T0)=mean optical density of time zero wells, and (C)=mean optical density of control wells, or if T<T0 where cell killing has occurred, then percent cell death can be calculated as follows: (T−T0)/(T0)×100. By varying drug concentration, dose response curves were generated and the GI50 values were calculated. The GI50 values for each experiment were calculated using data obtained from three duplicate wells on two separate plates. The mean GI50 values and standard deviations were then calculated from the GI50's from each independent experiment.

Lewis Lung = assay: In vitro growth inhibition, SRB assay, Lewis Lung; conditions: 72 hrs treatment, read-out: In vitro growth inhibition GI50 (± sd), Lewis Lung
Description: (§3) The detailed methodology of the SRB assay is described elsewhere (2,3). Briefly, 96-well microtiter plates were inoculated with 100 ul of the above cell lines at optimal cell densities, 3500-15,000 cells/well, in medium (RPMI 1640 with L-glutamine (Mediatech, Herndon, Va.)) supplemented with 10% fetal bovine serum (Life Technologies) for all cell lines. The plates were then incubated for 24 hours at 37° C., 100% humidity, and 5% CO2. After the 24 hour incubation, 100 μl of medium was added to the designated time zero plates, then the plates containing adherent cell lines were acid fixed with 50 ul of 50% trichloroacetic acid (wt/vol) (Sigma, St. Louis, Mo.) and refrigerated at 4° C. for 1 hour (the suspension cell lines were acid fixed with 80% trichloroacetic acid). The supernatant was discarded and the plates were rinsed 6 times with water and air dried. Then the test compound was added (100 ul aliquots) to the remaining (non-fixed) plates at 2 times the predetermined highest concentration and serially diluted across the plates. Growth control wells received an additional 100 ul of medium. […] The bound stain was solubilized with 100 ul of 10 mM Tris buffer (Sigma) and the optical density was read spectrophotometrically at 490 nm (Microplate Reader Model 3550-UV, Biorad, Hercules, Calif.). […] Percent growth was calculated as follows: (T−T0)/(C−T0)×100 where (T)=mean optical density of treated wells at a given drug concentration, (T0)=mean optical density of time zero wells, and (C)=mean optical density of control wells, or if T<T0 where cell killing has occurred, then percent cell death can be calculated as follows: (T−T0)/(T0)×100. By varying drug concentration, dose response curves were generated and the GI50 values were calculated. The GI50 values for each experiment were calculated using data obtained from three duplicate wells on two separate plates. The mean GI50 values and standard deviations were then calculated from the GI50's from each independent experiment.

[2] = system: MCF 7, a human breast carcinoma line; assay: In vitro growth inhibition, SRB assay, MCF7; conditions: 72 hrs treatment, read-out: In vitro growth inhibition GI50 (± sd), MCF7
Description: as §1, §2

[3] = system: MCF 7/adr, multi-drug resistant human breast carcinoma; assay: In vitro growth inhibition, SRB assay, MCF7/adr; conditions: 72 hrs treatment, read-out: In vitro growth inhibition GI50 (± sd), MCF7/adr
Description: as §1, §2

[4] = system: L1210 murine lymphocytic leukemia; assay: In vitro growth inhibition, SRB assay, L1210; conditions: read-out: In vitro growth inhibition GI50 (± sd), L1210
Description: as §1, §2

[5] = system: L1210/vmdr murine lymphocytic leukemia (mdr 1 transfected); assay: In vitro growth inhibition, SRB assay, L1210/vmdr; conditions: for GI50: 72 hrs treatment, read-out: In vitro growth inhibition GI50 (± sd), L1210/vmdr
Description: as §1
as §3, with “dried.” for “dried. Then the test compound was added (100 ul aliquots) to the remaining (non-fixed) plates at 2 times the predetermined highest concentration and serially diluted across the plates. Growth control wells received an additional 100 ul of medium.”

[6] = system: U-937, a human histiocytic lymphoma cell line; assay: In vitro growth inhibition, SRB assay, U937; conditions: read-out: In vitro growth inhibition GI50 (± sd), U937
Description: as §1, §2

[7] = system: platelets in dog whole blood; assay: Platelet aggregation response in whole blood (impedance aggregometer), dog blood
Description: (§4) The platelet aggregation effect of the liposomes in the whole blood of various mammals was evaluated using a CHRONO-LOG Dual Chamber Whole Blood Aggregometer Model 560, according to the following protocol:
(§5) Venous blood was collected using 3.8% sodium citrate in a Vacutainer. Dilution ratio is 1 to 9 (citrate solution: blood). The effect of D and L etherlipid and liiposmes containing them on aggregation of platelets from rats, dogs, monkeys and humans was tested.
(§6) Immediately following collection the blood was mix by gentle inversion (maintain at room temperature). Prewarm 500 ul saline in disposable plastic cuvettes. Add 500 ul whole blood or PRP. Add disposable siliconized mini stir bar. Warm diluted blood 5 min at 37° C. prior to testing. Add test samples to aggregation chambers and insert impedance probes.
(§7) Platelet aggregation response was determined by increased resistance using an impedance electrode in a platelet suspension. Resistance measurements were taken 6-8 minutes after addition of the test article to 1 ml whole blood or platelet rich plasma (PRP).

[8] = system: platelets in rat whole blood; assay: Platelet aggregation response in whole blood (impedance aggregometer), rat blood
Description: as §4, §5, §6, §7

[9] = system: platelets in human whole blood; assay: Platelet aggregation response in whole blood (impedance aggregometer), human blood
Description: as §4, §5, §6, §7

[10] = system: PAF binding sites on dog blood platelets; assay: Platelet aggregation response in dog whole blood with and without CV-6209; conditions: PAF alone, concentration 0.05 μM
Description: as §4, §6, §7
To further investigate the platelet aggregation response triggered by the L-ether lipid in dog whole blood, the effect of a compound (CV-6209) that binds PAF binding sites on dog blood platelets was studied.

[11] = Homo sapiens, A549, 72 hrs treatment
[12] = Mus musculus, L1210, 72 hrs treatment
[13] = Homo sapiens, U-937, 72 hrs treatment

- GI50 [1, 11]: 7.96 ± 0.57 µM
- GI50 ([2]; Homo sapiens, MCF7a): 14.6 ± 5.92 µM
- GI50 ([3]; Homo sapiens, NCI/ADR-RES): 25.1 ± 1.69 µM
- GI50 [4, 12]: 3.6 ± 1.59 µM
- GI50 ([5]; Mus musculus): 4.87 ± 0.77 µM
- GI50 [6, 13]: 1.41 ± 0.29 µM
Compound: CCCCCCCCCCCCCCCCCCOC[C@@H](COP(=O)([O-])OCC[N+](C)(C)C)OC [D-EL, 3-O-octadecyl-2-O-methyl-sn-glycero-1-phosphocholine]
- GI50 (Lewis Lung; Lewis lung carcinoma): 25.4 ± 0.95 µM
- activity against L1210/vmdr compared to L-EL and the racemate ([5]; 72 hrs): slight but statistically significant greater activity

Compound: Nc1ncnc2c1ncn2[C@@H]1O[C@H](COP(=O)(O)OP(=O)(O)O)[C@@H](O)[C@H]1O [ADP]
- Dog Blood Response ([7]; concentration 20 μM): 4.0 Ω
- Rat Blood Response ([8]; concentration 20 μM): 2.0 Ω
- Human Blood Response ([9]; concentration 20 μM): 6.3 Ω

- GI50 [1, 11]: 9.07 ± 0.39 µM
- GI50 ([2]; Homo sapiens, MCF7a): 18.6 ± 4.57 µM
- GI50 ([3]; Homo sapiens, NCI/ADR-RES): 27.9 ± 2.1 µM
- GI50 [4, 12]: 4.77 ± 0.41 µM
- GI50 ([5]; Mus musculus): 8.77 ± 1.47 µM
- GI50 [6, 13]: 1.53 ± 0.42 µM
Compound: CCCCCCCCCCCCCCCCCCOC[C@H](COP(=O)([O-])OCC[N+](C)(C)C)OC [L-EL, 1-O-octadecyl-2-O-methyl-sn-glycero-3-phosphocholine]
- GI50 (Lewis Lung; Lewis lung carcinoma): 29.1 ± 2.05 µM

Compound: CCCCCCCCCCCCCCCCCCOCC(COP(=O)([O-])OCC[N+](C)(C)C)OC (racemic) [rac-EL]
- GI50 ([1]; 72 hrs treatment): 8.36 ± 0.67 µM
- GI50 (Lewis Lung): 27.1 ± 1.98 µM
- GI50 [2]: 15.9 ± 6.41 µM
- GI50 [3]: 27.8 ± 0.3 µM
- GI50 ([4]; 72 hrs treatment): 4.18 ± 1.38 µM
- GI50 [5]: 6.09 ± 2.15 µM
- GI50 ([6]; 72 hrs treatment): 1.5 ± 0.22 µM

Compound: 1-O-2-acetyl-sn-glycero-3-phosphocholine [PAF]
- Dog Blood Response ([7]; concentration 0.05 μM): 14.8 Ω
- Rat Blood Response ([8]; concentration 0.05 μM): 0 Ω
- Human Blood Response ([9]; concentration 0.05 μM): 6.0 Ω
- Dog Blood Response [10]: 23.5 Ω

Compound: collagen
- Dog Blood Response ([7]; concentration 20 μg/μL): 12 Ω
- Rat Blood Response ([8]; concentration 20 μg/μL): 34.1 Ω
- Human Blood Response ([9]; concentration 20): 36 Ω
